Results on eleven compounds are retold here after PMC11247487, “Discovery of Dual MER/AXL Kinase Inhibitors as Bifunctional Small Molecules for Inhibiting Tumor Growth and Enhancing Tumor Immune Microenvironment” (Journal of Medicinal Chemistry, 2024).

The target in data set [1] is T1, MER (Homo sapiens, UniProt Q12866).
T1 construct: A purified kinase (MER or AXL) was incubated with a compound or DMSO
T1 sequence (Q12866 21-999): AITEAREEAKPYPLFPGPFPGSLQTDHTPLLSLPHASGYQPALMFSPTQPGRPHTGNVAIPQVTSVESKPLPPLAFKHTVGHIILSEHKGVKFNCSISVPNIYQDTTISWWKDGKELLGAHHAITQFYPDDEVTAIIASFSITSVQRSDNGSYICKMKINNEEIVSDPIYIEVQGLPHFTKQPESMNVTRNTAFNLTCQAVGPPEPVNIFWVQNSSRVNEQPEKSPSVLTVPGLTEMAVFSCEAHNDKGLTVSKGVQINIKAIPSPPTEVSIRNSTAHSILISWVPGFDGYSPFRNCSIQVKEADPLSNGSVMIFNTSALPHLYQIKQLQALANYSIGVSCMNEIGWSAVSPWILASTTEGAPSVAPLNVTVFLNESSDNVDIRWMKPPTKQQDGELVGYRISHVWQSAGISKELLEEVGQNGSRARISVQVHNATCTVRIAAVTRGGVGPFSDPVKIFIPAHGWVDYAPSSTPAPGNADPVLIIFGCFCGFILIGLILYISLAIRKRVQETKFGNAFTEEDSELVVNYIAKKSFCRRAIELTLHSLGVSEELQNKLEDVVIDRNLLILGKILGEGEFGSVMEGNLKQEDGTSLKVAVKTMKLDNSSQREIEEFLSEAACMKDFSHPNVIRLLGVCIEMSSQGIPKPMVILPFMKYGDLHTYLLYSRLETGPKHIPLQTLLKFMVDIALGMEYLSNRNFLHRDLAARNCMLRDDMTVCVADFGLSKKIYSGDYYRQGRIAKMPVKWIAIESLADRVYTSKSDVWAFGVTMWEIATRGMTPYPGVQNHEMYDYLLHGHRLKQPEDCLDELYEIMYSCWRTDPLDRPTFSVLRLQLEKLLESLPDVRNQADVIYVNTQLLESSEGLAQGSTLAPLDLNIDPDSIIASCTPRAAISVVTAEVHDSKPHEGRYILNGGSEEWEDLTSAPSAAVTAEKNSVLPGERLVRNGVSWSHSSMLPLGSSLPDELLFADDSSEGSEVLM
Put plainly: MER enzyme inhibition assay (in-house Kinase-Glo). It counts as biochemical. As to conditions: for inhibition at 1 µM: read-out: MER inh. @ 1 μM.

In data set [2] the target is T2, AXL (Homo sapiens, UniProt P30530).
T2 construct: A purified kinase (MER or AXL) was incubated with a compound or DMSO
T2 sequence (P30530 26-894): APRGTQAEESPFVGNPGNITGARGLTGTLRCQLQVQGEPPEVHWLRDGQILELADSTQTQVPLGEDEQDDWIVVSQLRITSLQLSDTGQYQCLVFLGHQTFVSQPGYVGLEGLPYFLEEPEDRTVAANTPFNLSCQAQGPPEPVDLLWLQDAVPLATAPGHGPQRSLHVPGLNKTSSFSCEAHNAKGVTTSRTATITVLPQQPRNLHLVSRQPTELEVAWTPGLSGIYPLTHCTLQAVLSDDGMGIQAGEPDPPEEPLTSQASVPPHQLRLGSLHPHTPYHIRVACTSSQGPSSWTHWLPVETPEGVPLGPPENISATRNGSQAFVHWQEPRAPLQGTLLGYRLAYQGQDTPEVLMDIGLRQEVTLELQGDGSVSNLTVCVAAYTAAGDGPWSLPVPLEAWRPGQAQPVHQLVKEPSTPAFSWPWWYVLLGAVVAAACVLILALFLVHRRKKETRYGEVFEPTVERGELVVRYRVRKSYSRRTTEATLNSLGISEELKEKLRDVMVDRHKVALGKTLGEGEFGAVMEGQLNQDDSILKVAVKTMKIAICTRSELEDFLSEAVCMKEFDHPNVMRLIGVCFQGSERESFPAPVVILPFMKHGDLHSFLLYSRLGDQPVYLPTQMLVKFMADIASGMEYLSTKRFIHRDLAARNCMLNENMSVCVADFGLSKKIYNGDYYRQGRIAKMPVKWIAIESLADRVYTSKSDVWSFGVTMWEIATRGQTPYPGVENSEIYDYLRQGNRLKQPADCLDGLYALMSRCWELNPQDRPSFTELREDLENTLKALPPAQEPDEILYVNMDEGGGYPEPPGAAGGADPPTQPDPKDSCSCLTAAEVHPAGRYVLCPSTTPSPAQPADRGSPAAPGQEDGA
Put plainly: AXL enzyme inhibition assay (ADP-Glo). It counts as biochemical. The settings on record: for inhibition at 1 µM: read-out: AXL inh. @ 1 μM.

The target in data set [3] is EGFR^WT (Homo sapiens, UniProt P00533). Nature of the data set: EGFR^WT in-house Kinase-Glo assay. In kind it is biochemical. As to conditions: for inhibition at 1 µM: read-out: EGFR^WT inh. @ 1 μM.
Data set [4] has as its target EGFR^DM (T790M/L858R) (Homo sapiens, UniProt P00533, L858R/T790M). Nature of the data set: EGFR^DM in-house Kinase-Glo assay. It counts as biochemical.
Data set [5] has as its system Ba/F3-MER cells. Nature of the data set: Cell viability assay (MTS). In kind it is cell-based. As to conditions: 72 h.
A short description of data set [6]: In vivo pharmacokinetics study. The settings on record: mice; for clearance at 24 h: read-out: iv CL; for Vd at 24 h: read-out: iv Vss. The procedure: The animal studies were performed according to NHRI institutional animal care and committee-approved procedures. Male ICR mice (25–35 g) were obtained from BioLASCO (Taiwan Co., Ltd., Ilan, Taiwan). […] All samples were analyzed for the parent drug by LC-MS/MS. Plasma concentration data were analyzed with a noncompartmental method.

A short description of data set [7]: In vitro microsomal stability assay. In kind it is in vitro ADME. The settings on record: 1 μM, mouse liver microsomes, percent remaining at 30 min. The procedure:
All incubations were initiated with the addition of NADPH-generating system at 37 °C for 30 min. At 0 and the end of incubation, 100 μL of aliquots were taken from the incubation mixture and placed into centrifuge tubes containing 100 μL of ice-cold acetonitrile to terminate the metabolic reaction. The samples were vortexed and centrifuged, and then, the supernatant injected onto LC/MS. Percent of remaining of each compound was calculated by comparing peak areas at 30 min to that at the initiation of incubation.
(In general: Microsomes from liver hold many membrane-bound enzymes, among them those of drug oxidation.)

[8] abbreviates: male, ICR, mouse, plasma, iv 2 mg/kg.
The mark [9] stands for this setting: male, ICR, mouse, plasma, iv 2 mg/kg, read-out: iv T1/2 (converted).
[10] abbreviates: male, ICR, mouse, plasma, iv 2 mg/kg, po 10 mg/kg.

“And” between values parts separate entries of the source, which are not always exact repeats. Equal values may be shown once. Read-outs that look alike come from different tables or passages of the source.

Take `Nc1cccc(-c2c(-c3ccccc3)oc3ncnc(Oc4ccc(NC(=O)c5cccn(-c6ccc(F)cc6)c5=O)cc4)c23)c1` [Compound 17, N-(4-{[5-(3-Aminophenyl)-6-phenylfuro[5,4-d]pyrimidin-4-yl]oxy}phenyl)-1-(4-fluorophenyl)-2-oxo-1,2-dihydropyridine-3-carboxamide]: the inhibition at 1 µM in data set [1] is 70%; in data set [2] it was 100%; in data set [3] it was 1%; in data set [4] (read-out: EGFR^DM inh. @ 1 μM) it was -1%. Moreover, the IC50 (usually the concentration that inhibits the measured activity by half) in data set [5] was 8.4 nM and 8.2 nM.
Consider “N^1-(4-{[5-(3-Aminophenyl)-6-phenylfuro[2,3-d]pyrimidin-4-yl]amino}phenyl)-N^1-(4-fluorophenyl)cyclopropane-1,1-dicarboxamide [Compound 15]”, for which the “MER inh. @ 1 μM” value in data set [1] amounted to 19%. In addition, the “AXL inh. @ 1 μM” value in data set [2] is recorded as 92%. Also, the “EGFR^WT inh. @ 1 μM” value in data set [3] worked out at 1%. Further, the “EGFR^DM inh. @ 1 μM” value in data set [4] is −4%. In data set [5], this compound registered an IC50 of 713 nM.
Taken in the same sequence, the figures for “N^1-(4-{[5-(3-Aminophenyl)-6-phenylfuro[2,3-d]pyrimidin-4-yl]oxy}phenyl)-N^1-(4-fluorophenyl)cyclopropane-1,1-dicarboxamide [Compound 12]” were 71%, 100%, 0%, −9% and 73.6 nM.
For `CC(=O)Nc1cccc(-c2c(-c3cnn(C)c3)oc3ncnc(Oc4ccc(NC(=O)c5cccn(-c6ccc(F)cc6)c5=O)cc4)c23)c1` [Compound 28, N-[4-({5-[3-(Acetylamino)phenyl]-6-(1-methyl-1H-pyrazol-4-yl)furo[2,3-d]pyrimidin-4-yl}oxy)phenyl]-1-(4-fluorophenyl)-2-oxo-1,2-dihydropyridine-3-carboxamide], inhibition in data set [5] was half-maximal at 1 nM (IC50). In data set [6] (setting [8]), the clearance at 24 h was found to be 20.5 mL/min/kg and the Vd at 24 h was 10.5 L/kg. For the same compound, in data set [6] (setting [9]), the half-life at 24 h is 12.7 h. Also, the “iv DNAUC(0–inf)” value in data set [6] (iv 2 mg/kg, dose-normalized) came out at 766.5 ng·h/mL. Besides, in data set [7], the “Microsomal stability @ 30 min” value is recorded as 91%.
For the compound `Cn1cc(-c2oc3ncnc(Oc4ccc(NC(=O)c5cccn(-c6ccc(F)cc6)c5=O)cc4)c3c2-c2ccc(N3CCNCC3)cc2)cn1` [Compound 40, 1-(4-Fluorophenyl)-N-[4-({6-(1-methyl-1H-pyrazol-4-yl)-5-[4-(piperazin-1-yl)phenyl]furo[2,3-d]pyrimidin-4-yl}oxy)phenyl]-2-oxo-1,2-dihydropyridine-3-carboxamide], the IC50 in data set [1] came out at 2 nM; in data set [2] it was 8 nM; in data set [5] it was 1.6 nM.
Turning to `C=CC(=O)Nc1cccc(-c2c(-c3ccccc3)oc3ncnc(Oc4ccc(NC(=O)C5(C(=O)Nc6ccc(F)cc6)CC5)cc4)c23)c1` [Compound 11], the inhibition at 1 µM in data set [1] is 14%; in data set [2] it was 96%; in data set [3], 40%. Besides, the values for the IC50 in data set [4] (cell marked b = IC50 value) and in data set [5] were 42 nM and 618 nM, respectively.
`CN(C)Cc1ccc(-c2c(-c3cnn(C)c3)oc3ncnc(Oc4ccc(NC(=O)c5cccn(-c6ccc(F)cc6)c5=O)cc4)c23)cc1` [Compound 39, N-{4-[(5-{4-[(Dimethylamino)methyl]phenyl}-6-(1-methyl-1H-pyrazol-4-yl)furo[2,3-d]pyrimidin-4-yl)oxy]phenyl}-1-(4-fluorophenyl)-2-oxo-1,2-dihydropyridine-3-carboxamide]: in data set [6] (setting [10]), the bioavailability (in general, the share of a dose that reaches the circulation, judged against a reference dose that is usually intravenous) is more than 20% and the bioavailability at 24 h was found to be 26.2%. Further, in data set [6] (setting [8]), the clearance at 24 h is 84 mL/min/kg and the Vd at 24 h was found to be 8 L/kg. Besides, the half-life at 24 h in data set [6] (setting [9]) was 11.2 h. Also, the Tmax (usually the time at which the peak concentration occurs) at 24 h in data set [6] (male, ICR, mouse, plasma, po 10 mg/kg) is 2 h. Also, the half-life at 24 h in data set [6] (male, ICR, mouse, plasma, po 10 mg/kg, read-out: po T1/2 (converted)) is 2.4 h. In addition, the “iv DNAUC(0–inf)” value in data set [6] (iv 2 mg/kg, dose-normalized) turned out to be 208.0 ng·h/mL. Also, in data set [6] (po 10 mg/kg, dose-normalized), the “po DNAUC(0–inf)” value worked out at 54.4 ng·h/mL and the “po DNCmax” value was determined as 5.7 ng/mL. The “Microsomal stability @ 30 min” value in data set [7] worked out at 67%.
Consider “N^1-{4-[(5,6-Diphenylfuro[2,3-d]pyrimidin-4-yl)oxy]phenyl}-N^1-(4-fluorophenyl)cyclopropane-1,1-dicarboxamide [Compound 13]”, for which, in data set [1], the “MER inh. @ 1 μM” value is reported as 41%. Also, the “AXL inh. @ 1 μM” value in data set [2] is reported as 98%. Further, the “EGFR^WT inh. @ 1 μM” value in data set [3] is 3%. In addition, in data set [4], the “EGFR^DM inh. @ 1 μM” value worked out at 2%. Besides, the IC50 in data set [5] amounted to 658 nM.
On the same counts, the results for “(4-{[5-(3-Aminophenyl)-6-phenylfuro[5,4-d]pyrimidin-4-yl]oxy}phenyl)-N-(phenylacetyl)carbamothioic amide [Compound 16]” are 9%, 95%, 1%, −6% and 1140 nM.
Turning to “N^1-(4-Fluorophenyl)-N^1-{4-[(6-phenylfuro[2,3-d]pyrimidin-4-yl)oxy]phenyl}cyclopropane-1,1-dicarboxamide [Compound 14]”, the “MER inh. @ 1 μM” value in data set [1] turned out to be 4%. For the same compound, in data set [2], the “AXL inh. @ 1 μM” value came out at 53%. Moreover, the “EGFR^WT inh. @ 1 μM” value in data set [3] stood at 4%. Moreover, the “EGFR^DM inh. @ 1 μM” value in data set [4] is 1%. The same compound returned an IC50 in data set [5] of 3630 nM.
`CN1CCN(c2ccc(-c3c(-c4cnn(C)c4)oc4ncnc(Oc5ccc(NC(=O)c6cccn(-c7ccc(F)cc7)c6=O)cc5)c34)cc2)CC1` [Compound 41, 1-(4-Fluorophenyl)-N-[4-({5-[4-(4-methylpiperazin-1-yl)phenyl]-6-(1-methyl-1H-pyrazol-4-yl)furo[2,3-d]pyrimidin-4-yl}oxy)phenyl]-2-oxo-1,2-dihydropyridine-3-carboxamide]: the IC50 in data set [1] came out at 5.8 nM; in data set [2], 15.8 nM; in data set [5] it was 0.7 nM.
